# Source: US20080051420A1, “New Compounds 317” (AstraZeneca AB, priority 2006, published 2008)
# Target: T1, human β-secretase (Homo sapiens, UniProt P56817)
# T1 construct: The soluble part of the human β-secretase (AA 1-AA 460) was cloned; made in house
# Assay: TR-FRET assay (β-secretase enzyme, sBACE-Fc)
# Format: biochemical
# Details: not given
# Method: The enzyme used in the IGEN Cleavage-, Fluorescent-, TR-FRET- and BiaCore assays is described as follows:
# The soluble part of the human β-secretase (AA 1-AA 460) was cloned into the ASP2-F10-1-IRES-GFP-neoK mammalian expression vector. The gene was fused to the Fc domain of IgG1 (affinity tag) and stably cloned into HEK 293 cells. Purified sBACE-Fc is stored in Tris buffer, pH 9.2 and has a purity of 95%.
# Enzyme was diluted to 6 μg/mL and the substrate (Europium)[…](Qsy7) to 200 nM in reaction buffer (NaAcetate, chaps, triton x-100, EDTA pH 4.5). Compounds were diluted to the desired concentration in dimethyl sulfoxide (final dimethyl sulfoxide concentration in assay is 5%). […] Enzyme (9 μL) and 1 μL of compound in dimethyl sulfoxide was added to the plate, mixed and pre-incubated for 10 min. Substrate (10 μL) was added and the reaction proceeded in the dark for 15 min at RT. The reaction was stopped with the addition of 7 μL NaAcetate, pH 9. […] The dimethyl sulfoxide control defined the 100% activity level and 0% activity was defined by exclusion of the enzyme (using reaction buffer instead).
# T1 sequence (P56817 22-460): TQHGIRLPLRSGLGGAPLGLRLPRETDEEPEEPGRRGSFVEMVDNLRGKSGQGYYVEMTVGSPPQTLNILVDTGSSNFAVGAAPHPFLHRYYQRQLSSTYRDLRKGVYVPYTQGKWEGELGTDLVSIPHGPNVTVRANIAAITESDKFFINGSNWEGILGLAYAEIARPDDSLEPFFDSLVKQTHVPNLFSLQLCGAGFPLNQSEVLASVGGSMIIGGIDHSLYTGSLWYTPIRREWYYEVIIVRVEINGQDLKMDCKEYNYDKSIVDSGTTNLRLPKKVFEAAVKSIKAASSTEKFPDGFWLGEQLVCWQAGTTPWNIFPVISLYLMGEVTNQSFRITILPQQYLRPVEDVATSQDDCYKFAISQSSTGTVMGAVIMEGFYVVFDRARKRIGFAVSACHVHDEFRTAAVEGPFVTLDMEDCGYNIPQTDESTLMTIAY
row,Molecule,IC50 [nM]
1,"COc1ccc(C2(c3cccc(-c4cc(OC)cc(OS(C)(=O)=O)c4)c3)N=C(N)N3CCN=C32)cc1 (stereo not drawn) [Example 73, 3′-[5-Amino-7-(4-methoxyphenyl)-2,7-dihydro-3H-imidazo[1,5-a]imidazol-7-yl]-5-methoxybiphenyl-3-yl methanesulfonate acetate]",190

# Same assay, conditions: read-out: IC50 in TR-FRET assay
row,Molecule,IC50 [nM]
1,"NC1=NC(c2ccccc2)(c2cccc(Br)c2)C2=NCCCN12 (stereo not drawn) [Example 98, 8-(3-Bromophenyl)-8-phenyl-2,3,4,8-tetrahydroimidazo[1,5-a]pyrimidin-6-amine]",727
2,"CC(C)S(=O)(=O)Oc1ccc(C2(c3cccc(-c4cccnc4F)c3)N=C(N)N3CCN=C32)cc1 (stereo not drawn) [Example 84, 4-{5-Amino-7-[3-(2-fluoropyridin-3-yl)phenyl]-2,7-dihydro-3H-imidazo[1,5-a]imidazol-7-yl}phenyl propane-2-sulfonate 0.75 acetate]",2510
3,"CS(=O)(=O)Oc1cccc(C2(c3cccc(-c4cccc(Cl)c4)c3)N=C(N)N3CCCN=C32)c1 (stereo not drawn) [Example 117, 3-[6-Amino-8-(3′-chlorobiphenyl-3-yl)-2,3,4,8-tetrahydroimidazo[1,5-a]pyrimidin-8-yl]phenyl methanesulfonate]",252
4,"CCCS(=O)(=O)Oc1ccc(C2(c3cccc(-c4cccnc4F)c3)N=C(N)N3CCCN=C32)cc1 (stereo not drawn) [Example 59, 4-{6-Amino-8-[3-(2-fluoropyridin-3-yl)phenyl]-2,3,4,8-tetrahydroimidazo[1,5-a]pyrimidin-8-yl}phenyl propane-1-sulfonate acetate]",221
5,"NC1=NC(c2ccc(OS(=O)(=O)C3CC3)cc2)(c2cccc(-c3cc(Cl)ccc3Cl)c2)C2=NCCCN12 (stereo not drawn) [Example 72, 4-[6-Amino-8-(2′,5′-dichlorobiphenyl-3-yl)-2,3,4,8-tetrahydroimidazo[1,5-a]pyrimidin-8-yl]phenyl cyclopropane sulfonate 0.5 acetate]",644
6,"CS(=O)(=O)Oc1cccc(C2(c3cccc(-c4cccnc4)c3)N=C(N)N3CCCN=C32)c1 (stereo not drawn) [Example 119, 3-[6-Amino-8-(3-pyridin-3-ylphenyl)-2,3,4,8-tetrahydroimidazo[1,5-a]pyrimidin-8-yl]phenyl methanesulfonate]",754
7,"NC1=NC(c2cccc(OS(=O)(=O)C(F)(F)F)c2)(c2cccc(-c3cccnc3)c2)C2=NCCCN12 (stereo not drawn) [Example 130, 3-[6-Amino-8-(3-pyridin-3-ylphenyl)-2,3,4,8-tetrahydroimidazo[1,5-a]pyrimidin-8-yl]phenyl trifluoromethanesulfonate]",137
8,"4-[5-Amino-7-(3′,5′-dichlorobiphenyl-3-yl)-2,7-dihydro-3H-imidazo[1,5-a]imidazol-7-yl]phenyl methanesulfonate 0.25 acetate [Example 75]",146
9,"CS(=O)(=O)Oc1ccc(C2(c3cccc(-c4cccc(Cl)c4)c3)N=C(N)N3CCN=C32)cc1 (stereo not drawn) [Example 76, 4-[5-Amino-7-(3′-chlorobiphenyl-3-yl)-2,7-dihydro-3H-imidazo[1,5-a]imidazol-7-yl]phenyl methanesulfonate 0.5 acetate]",226
10,"Cc1cc(C)cc(-c2cccc(C3(c4cccc(OS(C)(=O)=O)c4)N=C(N)N4CCCN=C43)c2)c1 (stereo not drawn) [Example 122, 3-[6-Amino-8-(3′,5′-dimethylbiphenyl-3-yl)-2,3,4,8-tetrahydroimidazo[1,5-a]pyrimidin-8-yl]phenyl methanesulfonate]",69
11,"CN(C)C(=O)c1cccc(C2(c3cccc(-c4cccnc4F)c3)N=C(N)N3CC(F)(F)CN=C32)c1 (stereo not drawn) [Example 145, 3-{6-Amino-3,3-difluoro-8-[3-(2-fluoropyridin-3-yl)phenyl]-2,3,4,8-tetrahydroimidazo[1,5-a]pyrimidin-8-yl}-N,N-dimethylbenzamide]",224
12,"NC1=NC(c2ccc(OS(=O)(=O)C3CC3)cc2)(c2cccc(-c3cccc(C(F)(F)F)c3)c2)C2=NCCCN12 (stereo not drawn) [Example 70, 4-{6-Amino-8-[3′-(trifluoromethyl)biphenyl-3-yl]-2,3,4,8-tetrahydroimidazo[1,5-a]pyrimidin-8-yl}phenyl cyclopropane sulfonate 0.75 acetate]",620
13,"CCCS(=O)(=O)Oc1ccc(C2(c3cccc(-c4cncc(OC)c4)c3)N=C(N)N3CCCN=C32)cc1 (stereo not drawn) [Example 64, 4-{6-Amino-8-[3-(5-methoxypyridin-3-yl)phenyl]-2,3,4,8-tetrahydroimidazo[1,5-a]pyrimidin-8-yl}phenyl propane-1-sulfonate 0.75 acetate]",96
14,"COc1cccc(-c2cccc(C3(c4ccc(OS(=O)(=O)C(C)C)cc4)N=C(N)N4CCN=C43)c2)c1 (stereo not drawn) [Example 80, 4-[5-Amino-7-(3′-methoxybiphenyl-3-yl)-2,7-dihydro-3H-imidazo[1,5-a]imidazol-7-yl]phenyl propane-2-sulfonate 0.5 acetate]",1380
15,"NC1=NC(c2cccc(Br)c2)(c2cccc(OS(=O)(=O)C(F)(F)F)c2)C2=NCCCN12 (stereo not drawn) [Example 113, 3-[6-Amino-8-(3-bromophenyl)-2,3,4,8-tetrahydroimidazo[1,5-a]pyrimidin-8-yl]phenyl trifluoromethanesulfonate]",1200
16,"NC1=NC(c2ccc(OS(=O)(=O)C3CC3)cc2)(c2cccc(-c3cccc(Cl)c3)c2)C2=NCCCN12 (stereo not drawn) [Example 67, 4-[6-Amino-8-(3′-chlorobiphenyl-3-yl)-2,3,4,8-tetrahydroimidazo[1,5-a]pyrimidin-8-yl]phenyl cyclopropane sulfonate 0.75 acetate]",61
17,"CS(=O)(=O)Oc1cccc(C2(c3cccc(-c4cc(Cl)cnc4F)c3)N=C(N)N3CCCN=C32)c1 (stereo not drawn) [Example 121, 3-{6-Amino-8-[3-(5-chloro-2-fluoropyridin-3-yl)phenyl]-2,3,4,8-tetrahydroimidazo[1,5-a]pyrimidin-8-yl}phenyl methanesulfonate]",893
18,"CS(=O)(=O)Oc1ccc(C2(c3cccc(-c4cccnc4F)c3)N=C(N)N3CCN=C32)cc1 (stereo not drawn) [Example 78, 4-{5-Amino-7-[3-(2-fluoropyridin-3-yl)phenyl]-2,7-dihydro-3H-imidazo[1,5-a]imidazol-7-yl}phenyl methanesulfonate 0.5 acetate]",844
19,"CCCS(=O)(=O)Oc1cccc(C2(c3cccc(-c4cccc(OC)c4)c3)N=C(N)N3CCCN=C32)c1 (stereo not drawn) [Example 124, 3-[6-Amino-8-(3′-methoxybiphenyl-3-yl)-2,3,4,8-tetrahydroimidazo[1,5-a]pyrimidin-8-yl]phenyl propane-1-sulfonate]",528
20,"COc1ccc(C2(c3cccc(-c4cc(OC)cc(OS(C)(=O)=O)c4)c3)N=C(N)N3CCCN=C32)cc1 (stereo not drawn) [Example 52, 3′-[6-Amino-8-(4-methoxyphenyl)-2,3,4,8-tetrahydroimidazo[1,5-a]pyrimidin-8-yl]-5-methoxybiphenyl-3-yl methanesulfonate acetate]",43
21,"CCCS(=O)(=O)Oc1ccc(C2(c3cccc(-c4ccc(F)c(OC)c4)c3)N=C(N)N3CCCN=C32)cc1 (stereo not drawn) [Example 61, 4-[6-Amino-8-(4′-fluoro-3′-methoxybiphenyl-3-yl)-2,3,4,8-tetrahydroimidazo[1,5-a]pyrimidin-8-yl]phenyl propane-1-sulfonate 0.75 acetate]",671
22,"CC(C)S(=O)(=O)Oc1ccc(C2(c3cccc(-c4cccc(Cl)c4)c3)N=C(N)N3CCN=C32)cc1 (stereo not drawn) [Example 82, 4-[5-Amino-7-(3′-chlorobiphenyl-3-yl)-2,7-dihydro-3H-imidazo[1,5-a]imidazol-7-yl]phenyl propane-2-sulfonate 0.5 acetate]",484
23,"CS(=O)(=O)Oc1ccc(C2(c3cccc(-c4cncc(F)c4)c3)N=C(N)N3CCCN=C32)cc1 (stereo not drawn) [Example 33, 4-{6-Amino-8-[3-(5-fluoropyridin-3-yl)phenyl]-2,3,4,8-tetrahydroimidazo[1,5-a]pyrimidin-8-yl}phenyl methanesulfonate acetate]",397
24,"CCCS(=O)(=O)Oc1ccc(C2(c3cccc(-c4cccc(OC)c4)c3)N=C(N)N3CCCN=C32)cc1 (stereo not drawn) [Example 55, 4-[6-Amino-8-(3′-methoxybiphenyl-3-yl)-2,3,4,8-tetrahydroimidazo[1,5-a]pyrimidin-8-yl]phenyl propane-1-sulfonate 0.75 acetate]",139
25,"NC1=NC(c2cccc(OS(=O)(=O)C(F)(F)F)c2)(c2cccc(-c3cccc(Cl)c3)c2)C2=NCCCN12 (stereo not drawn) [Example 115, 3-[6-Amino-8-(3′-chlorobiphenyl-3-yl)-2,3,4,8-tetrahydroimidazo[1,5-a]pyrimidin-8-yl]phenyl trifluoromethanesulfonate]",106
26,"NC1=NC(c2cccc(OS(=O)(=O)C(F)(F)F)c2)(c2cccc(-c3cc(Cl)cnc3F)c2)C2=NCCCN12 (stereo not drawn) [Example 131, 3-{6-Amino-8-[3-(5-chloro-2-fluoropyridin-3-yl)phenyl]-2,3,4,8-tetrahydroimidazo[1,5-a]pyrimidin-8-yl}phenyl trifluoromethanesulfonate]",538
